According to patent US5091305A, “Bile acid sulfate sulfatase, process for its preparation and method for assaying bile acid” (Marukin Shoyu Co., Ltd., priority 1988, dated 1992):
Like-named read-outs stand apart in the source and are kept apart here.

Experiments:
[1] = test system: bile acid sulfate sulfatase; experiment: Inhibition and activation of the present Enzyme by additives; assay type: biochemical, Pseudomonas testosteroni
Procedure: (§1) The physicochemical properties of the present Enzyme are further described below. The activity of the present Enzyme is measured as follows. That is, into a quartz cell are placed 0.1 ml of 2.5 mM aqueous solution of lithocholic acid 3α-sulfate (Sigma), 0.2 ml of 15 mM aqueous solution of β-NAD (Oriental Yeast), 1.0 ml of 0.1M tris-hydrochloric acid buffer solution (pH 8.0) and 1.55 ml of distilled water, and after equilibrating at 30° C., 0.05 ml of β-hydroxysteroid dehydrogenase (Sigma) solution (10 U/ml) and 0.1 ml of a solution of the present Enzyme are sequentially added thereto and the reaction is effected at 30° C., and the increase of the absorbance at 340 nm in the initial stage of the reaction is determined. Under these conditions, the enzyme activity producing 1 μmol of NADH per minute is defined as 1 unit.

[2] = test system: bile acid sulfate sulfatase; experiment: Activity of the present Enzyme on substrates (coupled β-hydroxysteroid dehydrogenase/NADH assay, absorbance at 340 nm); assay type: biochemical, Pseudomonas testosteroni; conditions: for Relative activity (substrate specificity): lithocholic acid 3α-sulfate = 100
Procedure: as §1
(b) Substrate specificity: Acting on 3α-sulfates of nonconjugated bile acids, and 3α-sulfates each of glycine-conjugated and taurine-conjugated bile acids.

[3] = additive 2 mM, no additive = 100
[4] = additive 1 mM, no additive = 100
[5] = effect of the substance on the present Enzyme

Compound	Relative Activity [1, 3]	Relative activity (substrate specificity) [2]	other results
O=S(=O)([O-])[O-].[Cu+2] [Copper sulfate]	94%	–	–
[N-]=[N+]=[N-] [Sodium azide]	–	–	Relative Activity ([1]; additive 10 mM, no additive = 100): 100%
[Cl][Hg][Cl] [Mercuric chloride]	71%	–	Relative Activity [1, 4]: 90%
O=C(O)c1cc[c]([Hg][Cl])cc1 [p-Chloromercuribenzoate]	–	–	Relative Activity ([1]; additive 0.2 mM, no additive = 100): 98%; Inhibition and activation (in words) [1, 5]: Hardly inhibited
C[C@H](CCC(=O)NCCS(=O)(=O)O)[C@H]1CC[C@H]2[C@@H]3CC[C@@H]4C[C@H](OS(=O)(=O)O)CC[C@]4(C)[C@H]3CC[C@]12C [Taurolithocholic acid 3α-sulfate]	–	2%	–
C[C@H](CCC(=O)O)[C@H]1CC[C@H]2[C@@H]3CC[C@@H]4C[C@H](OS(=O)(=O)O)CC[C@]4(C)[C@H]3CC[C@]12C [Lithocholic acid 3α-sulfate]	–	100%	Km ([2]; Km of the present Enzyme to the substrate): 6 µM
C[C@H](CCC(=O)O)[C@H]1CC[C@H]2[C@@H]3CC=C4C[C@@H](OS(=O)(=O)O)CC[C@]4(C)[C@H]3CC[C@]12C [3β-Hydroxy-5-cholenic acid 3-sulfate]	–	0%	–
[Cl][Cd][Cl] [Cadmium chloride]	98%	–	–
O=S(=O)([O-])[O-].[Mg+2] [Magnesium sulfate]	101%	–	–
[Cl][Mn][Cl] [Manganese chloride]	111%	–	Inhibition and activation (in words) [1, 5]: Activated
c1cnc2c(c1)ccc1cccnc12 [o-Phenanthroline]	–	–	Relative Activity [1, 4]: 37%; Inhibition and activation (in words) [1, 5]: inhibited
C[C@H](CCC(=O)NCC(=O)O)[C@H]1CC[C@H]2[C@@H]3CC[C@@H]4C[C@H](OS(=O)(=O)O)CC[C@]4(C)[C@H]3CC[C@]12C [Glycolithocholic acid 3α-sulfate]	–	11%	–
4-Nitrocatechol sulfate	–	0%	–
O=S(=O)([O-])[O-].[Zn+2] [Zinc sulfate]	95%	–	–
[Cl][Co][Cl] [Cobalt chloride]	92%	–	–
C[C@H](CCC(=O)O)[C@H]1CC[C@H]2[C@@H]3[C@H](O)C[C@@H]4C[C@H](OS(=O)(=O)O)CC[C@]4(C)[C@H]3C[C@H](O)[C@]12C [Cholic acid 3α-sulfate]	–	238%	–
O=C(O)CN(CCN(CC(=O)O)CC(=O)O)CC(=O)O [EDTA]	–	–	Relative Activity [1, 4]: 38%; Relative Activity ([1]; additive 5 mM, no additive = 100): 25%; Inhibition and activation (in words) [1, 5]: inhibited
[F-].[Na+] [Sodium fluoride]	98%	–	–
O=C(O)CI [Monoiodoacetic acid]	–	–	Inhibition and activation (in words) [1]: Hardly inhibited; Relative Activity ([1]; 2000 µM): 98%
c1ccc(-c2ccccn2)nc1 [α,α'-Dipyridyl]	–	–	Relative Activity [1, 4]: 97%
